Data: patent publication US11407736B2 (priority 2019, dated 2022)

Experiments:
L929 cells = assay: L929 cell necroptosis assay (TNFa + zVAD, CellTiter-Glo); type: cell-based, murine; conditions: Mus musculus, L929, L929 cells, TNFa + zVAD; read-out: L929-CTG-recovery, L929, TNFa + zVAD (IC50)
Procedure, shortened: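 Murine L929 cells, plated 18 h beforehand at 10K cells/well in RPMI 1640 with 10% FBS, were switched to medium containing 40 uM zVAD-fmk and given compound from 4-fold serial dilutions. Viability after 18 h of TNFa stimulation at 37° C was read by CellTiter-Glo luminescence.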

RIPK1 = RIPK1 (Homo sapiens (Human), UniProt Q13546); assay: RIPK1 ADP-Glo biochemical kinase assay; conditions: read-out: RIPK1 ADP-Glo Kinase (IC50)
Protocol: The final reaction volume was 5.0ul.
Adding 5 μl of ADP-Glo™ terminated the reaction.

U937 cells = assay: U937 cell necroptosis assay (TNFa + zVAD, CellTiter-Glo); type: cell-based, human; conditions: Homo sapiens, U-937, U937 cells, TNFa + zVAD; read-out: U937 Zvad TNF CTG Recovery, U937, TNFa + zVAD (IC50)
Procedure, shortened: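 Human U937 and murine L929 cells in RPMI 1640/10% FBS were pre-incubated 1 h at 37 °C with serially diluted compound plus zVAD-fmk (U937 plated with 60 uM, L929 medium with 40 uM), then stimulated with 2 ng/mL TNFa (final). Viability read by CellTiter-Glo luminescence after 18 h.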

Chain of RIPK1 (Q13546 whole entry, species assumed): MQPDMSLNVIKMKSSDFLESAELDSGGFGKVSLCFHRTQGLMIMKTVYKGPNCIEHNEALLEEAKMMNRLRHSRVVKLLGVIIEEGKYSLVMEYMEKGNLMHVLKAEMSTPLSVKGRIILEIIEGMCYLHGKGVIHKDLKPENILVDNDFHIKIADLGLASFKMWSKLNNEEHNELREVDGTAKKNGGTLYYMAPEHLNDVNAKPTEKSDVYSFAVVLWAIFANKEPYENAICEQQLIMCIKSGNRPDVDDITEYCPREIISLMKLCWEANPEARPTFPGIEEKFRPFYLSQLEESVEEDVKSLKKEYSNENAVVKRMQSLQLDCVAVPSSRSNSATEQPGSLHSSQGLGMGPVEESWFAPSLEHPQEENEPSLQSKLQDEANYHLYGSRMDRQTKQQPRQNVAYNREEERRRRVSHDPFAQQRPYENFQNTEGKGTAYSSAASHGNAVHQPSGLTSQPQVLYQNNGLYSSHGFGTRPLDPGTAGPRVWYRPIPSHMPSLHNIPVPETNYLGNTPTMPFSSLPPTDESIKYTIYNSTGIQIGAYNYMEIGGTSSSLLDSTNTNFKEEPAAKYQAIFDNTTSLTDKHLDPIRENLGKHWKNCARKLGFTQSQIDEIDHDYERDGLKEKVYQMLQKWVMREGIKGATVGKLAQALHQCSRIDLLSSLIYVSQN

| SMILES | IC50 (RIPK1) [nM] | IC50 (L929 cells) [nM] | IC50 (U937 cells) [nM] |
| --- | --- | --- | --- |
| CN1C(=O)[C@@H](NC(=O)c2cc(Oc3ccccc3)ccn2)COc2cc(C#CC(C)(C)O)ccc21 [Compound I-64, (S)—N-(8-(3-hydroxy-3-methylbut-1-yn-1-yl)-5-methyl-4-oxo-2,3,4,5-tetrahydrobenzo[b][1,4]oxazepin-3-yl)-4-phenoxypicolinamide] | 19 | 0.1 | 0.5 |
| CN1C(=O)[C@@H](NC(=O)c2n[nH]c(Cc3c(Cl)cccc3Cl)n2)COc2ccc(C#CC(C)(C)O)cc21 [Compound I-65, (S)-5-(2,6-dichlorobenzyl)-N-(7-(3-hydroxy-3-methylbut-1-yn-1-yl)-5-methyl-4-oxo-2,3,4,5-tetrahydrobenzo[b][1,4]oxazepin-3-yl)-1H-1,2,4-triazole-3-carboxamide] | 63.9 | 41.5 | 42 |
| CN1C(=O)[C@@H](NC(=O)c2n[nH]c(Cc3ccccc3)n2)COc2cc(CN3CCn4nc(C(F)(F)F)nc4C3)ccc21 [Compound I-66, (S)-5-benzyl-N-(5-methyl-4-oxo-8-((2-(trifluoromethyl)-5,6-dihydro-[1,2,4]triazolo[1,5-a]pyrazin-7(8H)-yl)methyl)-2,3,4,5-tetrahydrobenzo[b][1,4]oxazepin-3-yl)-1H-1,2,4-triazole-3-carboxamide] | 79.4 | 94.9 | 189 |
| CN1C(=O)[C@@H](NC(=O)c2ncn(Cc3ccccc3)n2)COc2cc(CN3CCn4nc(C(F)(F)F)nc4C3)ccc21 [Compound I-67, (S)-1-benzyl-N-(5-methyl-4-oxo-8-((2-(trifluoromethyl)-5,6-dihydro-[1,2,4]triazolo[1,5-a]pyrazin-7(8H)-yl)methyl)-2,3,4,5-tetrahydrobenzo[b][1,4]oxazepin-3-yl)-1H-1,2,4-triazole-3-carboxamide] | 41.5 | 8.5 | 15.2 |
| CN1C(=O)[C@H](NC(=O)c2n[nH]c(Cc3ccccc3)n2)COc2ccc(C#CC(C)(C)O)cc21 [Compound I-70, (R)-5-benzyl-N-(7-(3-hydroxy-3-methylbut-1-yn-1-yl)-5-methyl-4-oxo-2,3,4,5-tetrahydrobenzo[b][1,4]oxazepin-3-yl)-1H-1,2,4-triazole-3-carboxamide] | 1160 | 19.5 | 188 |
| CN1C(=O)[C@@H](NC(=O)c2nnc(Cc3ccccc3)o2)COc2ccc(C#CC(C)(C)O)cc21 [Compound I-71, (S)-5-benzyl-N-(7-(3-hydroxy-3-methylbut-1-yn-1-yl)-5-methyl-4-oxo-2,3,4,5-tetrahydrobenzo[b][1,4]oxazepin-3-yl)-1,3,4-oxadiazole-2-carboxamide] | 21.7 | 0.2 | 0.9 |
| CN1C(=O)[C@@H](NC(=O)c2n[nH]c(Cc3ccccc3)n2)COc2cc(C#CC3(O)COC3)ccc21 [Compound I-73, (S)-5-benzyl-N-(8-((3-hydroxyoxetan-3-yl)ethynyl)-5-methyl-4-oxo-2,3,4,5-tetrahydrobenzo[b][1,4]oxazepin-3-yl)-1H-1,2,4-triazole-3-carboxamide] | 42.9 | 2.7 | 11.7 |
| CN1C(=O)[C@@H](NC(=O)c2n[nH]c(Cc3ccccc3)n2)COc2ccc(C#C[C@@]3(O)CO[C@@H]4[C@@H](OC(=O)c5ccccc5)CO[C@@H]43)cc21 [Compound I-74, (3S,3aR,6R,6aS)-6-(((S)-3-(5-benzyl-1H-1,2,4-triazole-3-carboxamido)-5-methyl-4-oxo-2,3,4,5-tetrahydrobenzo[b][1,4]oxazepin-7-yl)ethynyl)-6-hydroxyhexahydrofuro[3,2-b]furan-3-yl benzoate] | 51.8 | 0.2 | 1.4 |

The next lines start with results.

| IC50 (RIPK1) [nM] | SMILES | IC50 (L929 cells) [nM] | IC50 (U937 cells) [nM] |
| --- | --- | --- | --- |
| 54.6 | CN1C(=O)[C@@H](NC(=O)c2n[nH]c(Cc3ccccc3)n2)COc2ccc(C#C[C@@]3(O)CO[C@@H]4[C@@H](O)CO[C@@H]43)cc21 [Compound I-75, 5-benzyl-N—((S)-7-(((3R,3aS,6S,6aR)-3,6-dihydroxyhexahydrofuro[3,2-b]furan-3-yl)ethynyl)-5-methyl-4-oxo-2,3,4,5-tetrahydrobenzo[b][1,4]oxazepin-3-yl)-1H-1,2,4-triazole-3-carboxamide] | 1.4 | 8.3 |
| 44.9 | COC(=O)C(C)(C)C#Cc1ccc2c(c1)N(C)C(=O)[C@@H](NC(=O)c1n[nH]c(Cc3ccccc3)n1)CO2 [Compound I-76, methyl (S)-4-(3-(5-benzyl-1H-1,2,4-triazole-3-carboxamido)-5-methyl-4-oxo-2,3,4,5-tetrahydrobenzo[b][1,4]oxazepin-7-yl)-2,2-dimethylbut-3-ynoate] | 2.4 | 18.1 |
| 32.7 | CN1C(=O)[C@@H](NC(=O)c2ccn(Cc3ccccc3)n2)COc2ccc(C#CC(C)(C)O)cc21 [Compound I-77, (S)-1-benzyl-N-(7-(3-hydroxy-3-methylbut-1-yn-1-yl)-5-methyl-4-oxo-2,3,4,5-tetrahydrobenzo[b][1,4]oxazepin-3-yl)-1H-pyrazole-3-carboxamide] | 0.3 | 2.8 |
| 33.4 | CN1C(=O)[C@@H](NC(=O)c2n[nH]c(Cc3cccc(F)c3)n2)COc2ccc(C#CC(C)(C)O)cc21 [Compound I-78, (S)-5-(3-fluorobenzyl)-N-(7-(3-hydroxy-3-methylbut-1-yn-1-yl)-5-methyl-4-oxo-2,3,4,5-tetrahydrobenzo[b][1,4]oxazepin-3-yl)-1H-1,2,4-triazole-3-carboxamide] | 0.9 | 2.5 |
| 34.7 | CN1C(=O)[C@@H](NC(=O)c2n[nH]c(Cc3ccc(F)cc3)n2)COc2ccc(C#CC(C)(C)O)cc21 [Compound I-79, (S)-5-(4-fluorobenzyl)-N-(7-(3-hydroxy-3-methylbut-1-yn-1-yl)-5-methyl-4-oxo-2,3,4,5-tetrahydrobenzo[b][1,4]oxazepin-3-yl)-1H-1,2,4-triazole-3-carboxamide] | 0.8 | 5.1 |
| 20.6 | CN1C(=O)[C@@H](NC(=O)c2n[nH]c(Cc3ccccc3F)n2)COc2ccc(C#CC(C)(C)O)cc21 [Compound I-80, (S)-5-(2-fluorobenzyl)-N-(7-(3-hydroxy-3-methylbut-1-yn-1-yl)-5-methyl-4-oxo-2,3,4,5-tetrahydrobenzo[b][1,4]oxazepin-3-yl)-1H-1,2,4-triazole-3-carboxamide] | 0.7 | 2.7 |
| 19 | C#Cc1ccc2c(c1)N(C)C(=O)[C@@H](NC(=O)c1n[nH]c(Cc3ccccc3)n1)CO2 [Compound I-81, (S)-5-benzyl-N-(7-ethynyl-5-methyl-4-oxo-2,3,4,5-tetrahydrobenzo[b][1,4]oxazepin-3-yl)-1H-1,2,4-triazole-3-carboxamide] | 1.2 | 4.2 |
| 25.5 | Cc1ccccc1Cn1cnc(C(=O)N[C@H]2COc3ccc(C#CC(C)(C)O)cc3N(C)C2=O)n1 [Compound I-82, (S)—N-(7-(3-hydroxy-3-methylbut-1-yn-1-yl)-5-methyl-4-oxo-2,3,4,5-tetrahydrobenzo[b][1,4]oxazepin-3-yl)-1-(2-methylbenzyl)-1H-1,2,4-triazole-3-carboxamide] | 0.3 | 1.9 |
